Measurements taken from paper PMC11383987 (bioRxiv, 2024).
Changes are numbered by the printed parent chain. Several values for one entry are separate records, joined by “and”; a condition that tells them apart may be missing. Equal values may be shown once.

Experiments:
Format in all cases: biochemical
PIN8 N223A = target: T1, PIN8 N223A (Arabidopsis thaliana, UniProt Q9LFP6, N223A); experiment: SSM electrophysiology peak current response, PIN8 N223A proteoliposomes; conditions: for effect of N223A mutation on affinity/binding: PIN8 N223A vs WT
T1 sequence (Q9LFP6 1-367 N223A): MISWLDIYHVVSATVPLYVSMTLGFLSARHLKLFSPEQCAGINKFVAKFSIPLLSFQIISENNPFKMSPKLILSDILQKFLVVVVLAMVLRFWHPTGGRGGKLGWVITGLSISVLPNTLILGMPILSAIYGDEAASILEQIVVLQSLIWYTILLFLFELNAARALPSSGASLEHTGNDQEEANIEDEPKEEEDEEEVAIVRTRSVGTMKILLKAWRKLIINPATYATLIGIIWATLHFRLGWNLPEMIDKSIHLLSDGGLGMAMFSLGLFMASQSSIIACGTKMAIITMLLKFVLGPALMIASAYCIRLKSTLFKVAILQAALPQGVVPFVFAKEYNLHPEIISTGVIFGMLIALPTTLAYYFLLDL

PIN8 S266A = target: T2, PIN8 S266A (Arabidopsis thaliana, UniProt Q9LFP6, S266A); experiment: SSM electrophysiology peak current response, PIN8 S266A proteoliposomes; conditions: for Imax: PIN8 S266A
T2 sequence (Q9LFP6 1-367 S266A): T1 sequence (Q9LFP6 1-367 N223A) with A223N, S266A

PIN8 S146A = target: T3, PIN8 S146A (Arabidopsis thaliana, UniProt Q9LFP6, S146A); experiment: SSM electrophysiology peak current response, PIN8 S146A proteoliposomes; conditions: for Imax: PIN8 S146A
T3 sequence (Q9LFP6 1-367 S146A): T1 sequence (Q9LFP6 1-367 N223A) with S146A, A223N

PIN8 Y150F = target: T4, PIN8 Y150F (Arabidopsis thaliana, UniProt Q9LFP6, Y150F); experiment: SSM electrophysiology peak current response, PIN8 Y150F proteoliposomes; conditions: for Imax: PIN8 Y150F
T4 sequence (Q9LFP6 1-367 Y150F): T1 sequence (Q9LFP6 1-367 N223A) with Y150F, A223N

PIN8 S55A = target: T5, PIN8 S55A (Arabidopsis thaliana, UniProt Q9LFP6, S55A); experiment: SSM electrophysiology peak current response, PIN8 S55A proteoliposomes; conditions: for Imax: PIN8 S55A
T5 sequence (Q9LFP6 1-367 S55A): T1 sequence (Q9LFP6 1-367 N223A) with S55A, A223N

[1] = target: T6, Arabidopsis thaliana PIN8 (Arabidopsis thaliana, UniProt Q9LFP6); experiment: SSM electrophysiology peak current response, wild-type PIN8 proteoliposomes; conditions: for EC50: EC50 of peak current response; for EC50 / Imax: WT PIN8, Michaelis-Menten fit; for peak width of SSM current response at various lipid-to-protein ratios (LPR): LPR10 vs LPR50, variation is consistent with transport
T6 sequence (Q9LFP6 1-367): T1 sequence (Q9LFP6 1-367 N223A) with A223N

PIN8 I51Y = target: T7, PIN8 I51Y (Arabidopsis thaliana, UniProt Q9LFP6, I51Y); experiment: SSM electrophysiology peak current response, PIN8 I51Y proteoliposomes; conditions: for Imax: PIN8 I51Y
T7 sequence (Q9LFP6 1-367 I51Y): T1 sequence (Q9LFP6 1-367 N223A) with I51Y, A223N

Row | Imax (PIN8 N223A; PIN8 N223A) [nA] | effect of S55A mutation on affinity (PIN8 S55A; PIN8 S55A vs WT) | Structure (SMILES) | effect of N223A mutation on affinity/binding (PIN8 N223A) | EC50 (PIN8 S266A) [µM] | Imax (PIN8 S266A) [nA] | EC50 (PIN8 S146A) [µM] | Imax (PIN8 S146A) [nA] | EC50 (PIN8 Y150F) [µM] | Imax (PIN8 Y150F) [nA] | EC50 (PIN8 S55A) [µM] | Imax (PIN8 S55A) [nA] | EC50 [1] | peak width of SSM current response at various lipid-to-protein ratios (LPR) [1] | Imax [1] [nA] | EC50 (PIN8 I51Y) [µM] | Imax (PIN8 I51Y) [nA]
1 |  |  | O=C(O)COc1ccc(Cl)cc1Cl [2,4-D, 2,4-dichlorophenoxyacetic acid] | completely abolishes binding | 774 ± 70 | 12 ± 0.7 | 164 ± 67 | 8 ± 0.9 | 816 ± 275 | 8 ± 2 | 95 ± 36 | 6 ± 0.6 | 179 ± 10 µM | vary with LPR | 17 ± 2 | 641 ± 77 | 3 ± 0.8
2 |  |  | O=C(O)COc1ccc(Cl)cc1 [4-CPA, 4-chlorophenoxyacetic acid] | completely abolishes binding | 2100 ± 290 | 7 ± 2 | 369 ± 27 | 8 ± 2 | 710 ± 228 | 5 ± 0.9 | 328 ± 15 | 11 ± 1 | 800 ± 200 µM | vary with LPR | 12 ± 2 | 1040 ± 252 | 3 ± 0.8
3 | 2 ± 0.8 | remains unchanged | O=C(O)Cc1c[nH]c2ccccc12 [IAA, indole-3-acetic acid] | reduces affinity for IAA only slightly | 578 ± 183 | 4 ± 0.6 | 498 ± 191 | 8 ± 2 | 452 ± 32 | 6 ± 2 | 213 ± 58 | 6 ± 1 | 250 µM and 254 µM | vary with LPR | 18 ± 3 | 547 ± 171 | 2 ± 0.2
